Assays:
C57BL/6 mice = assay: Full thickness excisional splinted wound model: wound closure and histomorphometry; type: in vivo; details: for wound closure: daily systemic 4-AP
Text: The effect of 4-AP in promoting cutaneous wound healing and tissue regeneration was investigated using a full thickness excisional wound model (FIG. 3A). Excisional wounds (5 mm) were splinted with silicone rings to prevent wound contraction, in 10-wk-old male C57BL/6 mice, which were then randomized and treated with either saline or systemic 4-AP (dosage to correspond to human dosage) daily for 14 days. Wounds were monitored by digital imaging for morphometry, percentage of wound healing, and tissue regeneration on days 3, 5, 7, 9, 12 and 14 post wound (PWD) (when tissue was harvested).
Male C57BL/6 (10 week) mice were purchased from the Jackson Laboratory (Bar Harbor, ME USA). Mice were anesthetized by intraperitoneal injection of ketamine (60 mg/kg) and xylazine (4 mg/kg) body weight, and the dorsal skin hair was removed using mechanical shaver and then, applied the hair removal cream. Skin was disinfected using 70% ethanol and betadine for 3 times. The dorsal skin was folded and raised cranially and caudally at midline using index fingers and thumbs, and place the animal in a lateral position and two 5-mm wounds created in their dorsal skin using sterile biopsy punch. A 5-mm-diameter silicone ring was then placed and sutured around the each wound to restrict contraction. After wound creation and sutured silicone ring, wound site was photographed, and wound surface was covered with a Tegaderm (3M) sterile transparent dressing. After surgery, mice was administered SR Buprenorphine (0.05 mg/kg) as a post-operative analgesia. The mice were randomized into the following two groups: a control group (vehicle control), which received 100 μl of saline, and a 4-AP group. In total […]/mouse/daily 4-AP in 90-110 μl of saline intraperitoneally (IP) was administered until day 14 post wound. Digital imaging of the wound was used was determined for each wound healing by quantification of wound area based on digital pictures taken from day 0 to day 14 (days 0, 3, 5, 7, 9, 12 and 14) post-surgery (FIG. 3A). Wound areas were measured in pixel using ImageJ-1.53e software (National Institutes of Health, USA) and normalized/corrected each wound area with reference scale and wound healing expressed as percentage with respect to day 0 wound, using following formula.
At the day 14 wound skin sample were collected after mice were euthanized using CO2 and skin samples were excised, either flash frozen or fixed in a buffered 4% formaldehyde solution at 4° C., overnight for samples to be embedded in paraffin and the wound skin paraffin blocks were processed into serially cut into […] sections on a Microtome (Leica RM2235, Germany). The wound skin sections were used for morphometric analysis and immunofluorescence staining. […] sectioned wound skin samples of day 14 were sections were deparaffinised using xylene and ethyl alcohol and stained with hematoxylin and eosin (H&E). To evaluate the epidermis thickness, and wound induced hair follicle formation, four randomly fields of each H&E-stained sections were imaged under a light microscope (Olympus BX53, Olympus, Tokyo, Japan) at 1000 magnification. The values of each mice were averaged, and then groups were compared. To measure the wound induced hair follicles, similar to above procedure, the number of hair follicles at dermis were counted and then average value calculated for each group. To understand the collagen formation, maturation and deposition Masson's trichome analysis were performed as per manufacture instructions (Sigma-Aldrich, Catalog No.: HT15-1KT).

[1] = test system: human foreskin dermal primary Schwann cells; assay: Scratch wound healing migration assay, primary dermal Schwann cells; type: cell-based
Experimental: Dermal Schwann cells isolation culture conditions and characterization—The separated dermis was minced into small pieces and placed in a petri dish containing collagenase in DMEM basal medium at 37° C. for 2.5 hours. The dermis was completely dissociated and the medium was cloudy. The dissociated medium was collected in tube and centrifuged at 1500 rpm for 5 minutes. The pellet was resuspended in complete DMEM medium, added on poly-L-lysine coated dish and the dish was incubated at 37° C. in 5% CO2 incubator for overnight. Next day, adhered cells were treated with 10 μM cytosine arabinoside containing DMEM complete medium and incubated at 37° C. in 5% CO2 incubator for 24 hours. After, the cells were cultured in Schwann cells culture medium (ScienCell Research, Catlog No. 1701) until the cells reached about 95% confluence.
Keratinocytes/Schwann cells/fibroblasts (7×10^4 cells/well keratinocytes and 3.5×10^4 cells/well of SCs and FBs) with their respective medium were seeded on pre-coated either with collagen-I/PLL/no 96-well ImageLock microplate for 6 hours (Incucyte-sartorius plate, Cat log 4379). For the drug treatment cells were pretreated with 4-AP prior to coating for 16-18 hours. […] The plate was incubated in Incucyte automated imaging system, wound healing and cells migration was monitored by time-lapse photography capturing every hour from 0 to 42 hours. […]

[2] = test system: human foreskin dermal primary fibroblast; assay: Scratch wound healing migration assay, primary dermal fibroblasts; type: cell-based
[3] = test system: human foreskin primary keratinocytes; assay: Keratinocyte scratch assay with 4-AP, NGF and NGF-antibody; type: cell-based; details: at 12 hours
Experimental: Keratinocytes (7×10^4 cells/well) with KC medium were seeded on collagen-I pre-coated 96-well ImageLock microplate for 6 hours. For the drug treatment cells were pretreated with 4-AP prior to coating for 16-18 hours. Next, the wound scratch was created using IncuCyte automated system. After scratches the cells washed with PBS and the respective cells medium was added with individual 1 mM of 4-AP and 200 ng/ml of NGF (MyBioSource, Inc., Catlog No. MBS7114974) in keratinocytes medium and combination of 1 mM of 4-AP & 200 ng/mL NGF with or without 10 μg/ml of NGF-antibody (ThermoFisher Scientific, Catlog No. MA5-32067). The plate was incubated in Incucyte automated imaging system, wound healing and cells migration imaged for every hour until 24 hour and analyzed for percent of closure as described above procedure.

For `Nc1ccncc1` [4-AP, 4-aminopyridine], which re-epithelialization of wound (C57BL/6 mice; by day 14) is on record?
The re-epithelialization of wound was “completely re-epithelialized”.

What about the wound closure (C57BL/6 mice; day 3 post wound) of the same compound?
Its wound closure is 22.35±0.30%.

What about the “collagen deposition in dermis (Masson's Trichrome)” value (C57BL/6 mice; day 14, compared to saline) of the same compound?
Its value is “elevated collagen deposition”.

What about the “fold increase in WIHN” value (C57BL/6 mice; day 14, vs saline-treated mice) of the same compound?
The value was 1.8 fold.

And the wound closure (C57BL/6 mice; day 14 post wound)?
Its wound closure is 98.24±0.10%.

What about the thickness of newly formed epidermis (H&E) (C57BL/6 mice; day 14 wound tissue) of the same compound?
Its thickness of newly formed epidermis (H&E) is 29.7 ± 1.3 µm.

And the “mean number of hair follicles (wound-induced hair neogenesis)” value (C57BL/6 mice; day 14 wound tissue, H&E)?
The value was 45.

What about the “time to 80% scratch closure” value ([1]; 1 mM 4-AP, 23 hours without treatment) of the same compound?
The value was 11 h.

What about the “SOX10 and NGF expression in SCs” value ([1]; compared to controls) of the same compound?
The value was “increased”.

What about the fibroblast migration ([2]; 1 mM 4-AP vs no treatment) of the same compound?
Its fibroblast migration is “unaffected”.

What about the “vimentin and α-SMA protein expression (fibroblast to myofibroblast conversion)” value ([2]; 4-AP exposed vs no treatment) of the same compound?
The value was “increased”.

What about the scratch closure ([3]; 56% in control cultures, 1 mM 4-AP, 200 ng/ml NGF) of the same compound?
The scratch closure was 75%.

What about the “scratch closure with NGF-neutralizing antibody” value ([3]; plus 10 μg/ml NGF-antibody) of the same compound?
The value was 67%.
